# Data reported in US20240400572A1, “COMPOUNDS AND METHODS FOR TREATING CANCERS THAT ARE MGMT DEFICIENT REGARDLESS OF MMR STATUS” (Yale University, priority 2021, published 2024).
# How the values were obtained:
# [1] = tested on: LN229 MGMT−/MMR− cells; experiment: Short-term cell viability assay; format: cell-based, human; details: Homo sapiens, LN-229
# Protocol: Short-term Cell Viability Assay. Cells were seeded in 96-well plates at 1000 or 2000 cells/well and allowed to adhere at 23° C. for 60 min and then incubated overnight at 37° C. Cells were treated with indicated concentrations of compounds in triplicate for 4-6 days prior to fixation with 3.7% paraformaldehyde and nuclear staining with 1 μg/mL Hoechst 33342 dye. Cells were imaged on a Cytation 3 imaging reader (BioTek) and quantified using CellProfiler software.
# Statistical analysis. Statistical analysis was performed using GraphPad Prism software. Data are presented as mean or median±SD or SEM as indicated. For in vitro short-term growth delay experiments, IC50 values were determined from the nonlinear regression equation, [inhibitor] vs normalized response with variable slope. […]
# We synthesized the imidazotetrazine 4a (KL-50) and the triazene 4b (KL-85), as vehicles to deliver 2-fluoroethyl diazonium (4c), and a series of related agents to probe structure-activity relationships in tissue culture (FIG. Z1, D and F). […] We evaluated the cytotoxicity of our compounds in short-term cell viability assays against four isogenic LN229 glioblastoma cell lines engineered to be proficient or deficient in MGMT and/or MMR activity, using short hairpin RNAs (shRNAs) targeting MSH2 (referred to as MGMT+/−, MMR+/− cells hereafter; FIG. ZS2A). […]
# [2] = tested on: LN229 MGMT−/MMR+ and MGMT−/MMR− cells; experiment: IR alkaline comet assay; format: cell-based, human; details: for effect on IR-induced comet tail, ICL detection (in words) / comet tailing in the absence of IR (in words): MGMT−/MMR+ cells; for effect on IR-induced comet tail, ICL detection (in words): 200 μM for 24 h; for effect on IR-induced comet tail, ICL detection (in words) / rate of ICL formation, DNA mobility after IR (in words): 10 Gy; for comet tailing in the absence of IR (in words): TMZ and KL-50 200 μM, MMC 0.1 or 50 μM; for DNA damage in unirradiated samples (in words) / rate of ICL formation, DNA mobility after IR (in words): MGMT−/MMR− cells, 200 μM, 2, 8 or 24 h; for DNA damage in unirradiated samples (in words): 0 Gy
# Protocol: IR Alkaline Comet Assay. Assay was performed utilizing the CometAssay Kit (Trevigen) according to the alkaline assay protocol, with the addition of slide irradiation post-lysis. Cells were trypsinized, washed with 1×PBS, added to melted Comet LMAgarose (Trevigen), and spread on Trevigen CometSlides at a density of 1000 cells per sample in 50 μL. Lysis solution (Trevigen) with 10% DMSO was added overnight at 4° C. Slides were removed from lysis buffer and irradiated to 0 or 10 Gy using an XRAD 320 X-Ray System (Precision X-Ray) at 320 kV, 12.5 mA, and 50.0 cm SSD, with a 2 mm Al filter and 20 cm×20 cm collimator. Slides were then placed in alkaline buffer (200 mM NaOH, 1 mM EDTA) for 45 min, followed by electrophoresis in 850 mL alkaline buffer for 45 min at 4° C. Slides were washed and stained with SYBR gold (Invitrogen) per Trevigen assay protocol. Slides were imaged on a Cytation 3 imaging reader (BioTek), and comets were analyzed using CometScore 2.0 software (TriTek).
# We used a well-established comet assay adapted for ICL detection to determine if ICLs were formed in MGMT− cells treated with KL-50 (4a) (FIG. Z3, A and B). In this assay, cells were sequentially exposed to genotoxins and ionizing radiation, and then analyzed by single cell alkaline gel electrophoresis. Attenuation of the IR-induced comet tail is indicative of ICL formation.
# [3] = tested on: LN229 MGMT−/MMR− intracranial tumors; experiment: Anti-cancer activity in mice having tumors formed from LN-229 human brain glioblastoma cells; format: in vivo, mouse; details: 25 mg/kg PO for 5 days; compared with vehicle, TMZ, or KL50
# Protocol: Mice bearing tumors formed from LN-229 human brain glioblastoma cells were prepared as follows: LN229 MGMT−/MMR− cells stably expressing firefly luciferase (lentivirus-plasmids from Cellomics Technology; PLV-10003) were injected intracranially into mice using a stereotactic injector. For this procedure, 1.5 million LN229 MGMT−/MMR− cells in 5 μl PBS were injected into the brain of the mice subjects, and then the mice were imaged weekly using the IVIS Spectrum In Vivo Imaging System (PerkinElmer) according to the manufacturer's protocol. Images were taken on a weekly basis and acquired 10 min post intraperitoneal injection with d-luciferin (150 mg/kg of animal mass). Tumors were allowed to grow to an average of 1.0×10^8 RLU before randomization of the mice.
# Treatments using study compounds were administered PO (oral gavage), with 10% cyclodextrin vehicle control or study compound, according to the indicated treatment regimen. Animals were observed daily, with weekly tumor imaging and body weight measurements. Quantification of BLI flux (photons/sec) was made through the identification of a region of interest (ROI) for each tumor.
# Study compounds were administered to mice at a dose of 25 mg/kg PO for 5 days; thereafter no further study compound was administered to the mice.
# Statistical analysis of data was performed using GraphPad Prism software. Data was presented as mean±SEM. […]
Structure (SMILES),IC50 [1] [µM],"effect on IR-induced comet tail, ICL detection (in words) [2]",comet tailing in the absence of IR (in words) [2],DNA damage in unirradiated samples (in words) [2],"rate of ICL formation, DNA mobility after IR (in words) [2]",duration of survival (in words) [3]
"NC(=O)c1ncn2c(=O)n(CCF)nnc12 [KL-50, 3-(2-fluoroethyl)-4-oxo-3H,4H-imidazo[4,3-d][1,2,3,5]tetrazine-8-carboxamide]",~20,reduced the % DNA in the tail to levels similar to those seen for 0.1 μM MMC,induced tailing,"induced maximal damage at 2 h, which decreased over time",time-dependent decrease in DNA mobility,–
"CNC(=O)c1ncn2c(=O)n(CCF)nnc12 [Compound I-1, 3-(2-fluoroethyl)-N-methyl-4-oxo-3H,4H-imidazo[4,3-d][1,2,3,5]tetrazine-8-carboxamide]",–,–,–,–,–,longer duration of survival
"Cn1nnc2c(C(N)=O)ncn2c1=O [TMZ, temozolomide, reference compound]",–,did not reduce DNA migration following IR,induced tailing,"induced maximal damage at 2 h, which decreased over time",did not induce a statistically significant decrease in DNA migration within 24 h,–
